# Where two headings read alike, the source gives them in different places.
# Legend:
# Format in all cases: cell-based
# HIV-1IIIB = assay: Inhibition test on HIV-1IIIB induced cytopathic effect (syncytium formation) of C8166; settings: for EC50: Human immunodeficiency virus 1, C8166, 72 h, HIV-1IIIB in C8166 cells, 3 days; for Therapeutic index (TI): TI=CC50/EC50; for anti-HIV-1 activity (in words): comment on Table 1, relative to Compound 5
# Description: Inhibition Test of the Compounds 5-12 Obtained in the Above Examples on HIV-1IIIB Induced Cytopathic Effect (CPE) of C8166 8×10^5/mL C8166 cell suspension was inoculated in 50 μL/well into a 96-well cell culture plate containing compound diluted in multiple proportions in 100 μL/well, to which was then added 50 μL of HIV-1IIIB diluted supernatant (M.O.I. 0.0016). Set three repeated wells, at the same time, set normal cell control wells that are free of the compound. Culture was conducted at 37° C. and 5% CO2 for three days. Syncytium formation was counted using an inverted microscope (100×). EC50 (50% Effective Concentration), i.e., the concentration of the compound that inhibits 50% syncytium formation, was calculated. Calculation method and formula: dose-response curve was plotted according to the experimental results; according to Reed & Muench method, 50% effective concentration (EC50) to inhibit viruses, 50% Cytotoxic Concentration (CC50) and anti-HIV-1 activity in the Therapeutic Index (TI) were calculated according to the formula: TI=CC50/EC50.
# C8166 cells = assay: Cytotoxicity test on C8166 host cell (MTT colorimetry); settings: 3 days
# Description: (§1) Cytotoxicity Test of the Compounds 5-12 Obtained in the Above Examples on C8166 Host Cell 100 μL of 4×10^5/mL C8166 cell suspension was mixed with different candidate compound solutions. Set three repeated wells. Meanwhile, set compound-free control wells. Culture was conducted at 37° C. and 5% CO2 for three days. Cell toxicity was tested using MTT colorimetry. OD value was tested using ELX800 ELISA instrument, with the measurement wavelength of 595 nm and the reference wavelength of 630 nm. […] Calculation method and formula: dose-response curve was plotted according to the experimental results; according to Reed & Muench method, 50% effective concentration (EC50) to inhibit viruses, 50% Cytotoxic Concentration (CC50) and anti-HIV-1 activity in the Therapeutic Index (TI) were calculated according to the formula: TI=CC50/EC50.
# [1] = as above; settings: human, C8166 cells (T lymphocyte cell line)
# Description: as §1
# [2] = read-out: Syncytia inhibition (EC50) 2
# [3] = read-out: Syncytia inhibition (EC50) 1
EC50 (HIV-1IIIB; [2]) [µg/mL],EC50 (HIV-1IIIB; [3]) [µM],SMILES,Therapeutic index (TI) (HIV-1IIIB),toxicity (CC50) 2 (C8166 cells) [µg/mL],CC50 at 3 days ([1]; read-out: toxicity (CC50) 1) [µM],CC50 at 3 days ([1]; read-out: toxicity (CC50) 2) [µg/mL],anti-HIV-1 activity (in words) (HIV-1IIIB)
0.26,–,Br.COC(=O)c1cc2c(c(OC)c1-c1ccc(N(C)C)cc1)OCO2 [Compound 11],114.19,29.43,–,–,–
3.74,7.5,COC(=O)c1cc2c(c(OC)c1-c1ccc([N+](C)(C)Cc3ccccc3)cc1)OCO2.[Br-] [Compound 12],7.10,–,53.3,26.6,–
0.28,0.93,COC(=O)c1cc2c(c(OC)c1-c1ccc(N(c3ccccc3)c3ccccc3)cc1)OCO2 [Compound 8],862.52,–,802,245,–
0.14,0.49,COC(=O)c1cc2c(c(OC)c1-c1ccc(N(C)C)c(C)c1)OCO2 [Compound 6],>2551.02,–,> 1250,≥ 358,–
0.14,–,COC(=O)c1cc2c(c(OC)c1-c1ccc(N(C)C)cc1)OCO2 [Compound 5],>2840.91,≥ 411.41,–,–,very significant anti-HIV-1 activity
≥ 7.88,> 25,COc1c2c(cc(C(=O)O)c1-c1ccc(N(C)C)cc1)OCO2 [Compound 9],<25.97,–,649,205,activity declined notably
0.23,0.64,COC(=O)c1cc2c(c(OC)c1-c1ccc(N3CCOCC3)cc1)OCO2 [Compound 7],1376.35,–,881,317,–
0.15,0.42,COC(=O)c1cc2c(c(OC)c1-c1ccc(N(C)C)cc1)OCO2.Cl [Compound 10],>2976.19,≥ 456.38,–,–,activity was increased

# Reference: patent US9328084B2, “Nitrogen-containing biphenyl compounds, pharmaceutical compositions of same, preparation methods and anti-HIV-1 uses thereof” (Kunming Institute of Botany, The Chinese Academy of Sciences, priority 2010, dated 2016)
